Measured values as given in US7456164B2, “3- or 4-monosubtituted phenol and thiophenol derivatives useful as H3 ligands” (Pfizer, Inc, priority 2004, dated 2008).
Where two headings read alike, the source gives them in different places.

Biological target: T1, human histamine H3 receptor (Homo sapiens, UniProt Q9Y5N1)
T1 construct: expressed in transfected cells
Assay: H3 cell based functional assay (cAMP, β-lactamase reporter gene)
Description: Compounds were evaluated using a cell based functional assay measuring cAMP through β-lactamase reporter gene activity. A stable cell line was generated from HEK-293 cells expressing a CRE β-lactamase reporter gene and transfected with human histamine H3 receptor cDNA. Cells were seeded at a density of 500,000 cells/ml, and grown overnight in MEM (Invitrogen) supplemented with 1% dialysed FBS (Sigma), 2 mM glutamine (Sigma), 1 mM sodium pyruvate (Sigma), 0.1 mM non essential amino acids (Invitrogen) and 25 mM HEPES (Sigma) in poly D lysine coated 384 well plates (BD Biosciences). […] Cells were incubated for 15 minutes plus/minus compound and their ability to permit 10 μM forskolin-stimulated cAMP synthesis in the presence of 1 nM imetit was measured as described above.

[1] = functional Ki from IC50 by Cheng-Prussoff, HEK-293 CRE β-lactamase cells, 10 μM forskolin, 1 nM imetit, read-out: Ki (H3 cell based assay - nM)

T1 sequence (Q9Y5N1 whole entry): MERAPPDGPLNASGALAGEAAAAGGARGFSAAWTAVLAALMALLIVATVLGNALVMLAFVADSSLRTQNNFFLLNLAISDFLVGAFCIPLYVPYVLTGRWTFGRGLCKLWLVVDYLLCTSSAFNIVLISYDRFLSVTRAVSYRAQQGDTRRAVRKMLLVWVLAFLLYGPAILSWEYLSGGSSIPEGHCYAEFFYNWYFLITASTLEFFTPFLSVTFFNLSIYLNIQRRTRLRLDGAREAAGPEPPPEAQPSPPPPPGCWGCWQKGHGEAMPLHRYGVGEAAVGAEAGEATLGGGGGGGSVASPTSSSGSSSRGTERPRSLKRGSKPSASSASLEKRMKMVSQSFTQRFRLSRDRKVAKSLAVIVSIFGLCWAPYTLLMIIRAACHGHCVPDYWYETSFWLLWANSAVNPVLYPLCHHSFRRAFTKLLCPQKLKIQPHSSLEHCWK

Row | Ki [1] [nM] | Compound | Ki [nM]
1 | 0.4 | CN(C)CC1(c2ccc(OCCCN3CCCC3)cc2)CCOCC1 [Example 29, Dimethyl-{4-[4-(3-pyrrolidin-1-ylpropoxy)phenyl]-tetrahydro-pyran-4-ylmethyl}amine] | 
2 | 12.4 | CC(C)N1CCC(Oc2ccc(C3(C(=O)N(C)C)CCOCC3)cc2)CC1 [Example 133, 4-{4-[(1-isopropylpiperidin-4-yl)oxy]phenyl}-N,N-dimethyltetrahydro-2H-pyran-4-carboxamide] | 
3 | 3.9 | Cc1csc(C2(c3ccc(OCCCN4CCCC4)cc3)CCOCC2)n1 [Example 136, 4-methyl-2-[4-(4-(3-pyrrolidin-1-ylpropoxy)phenyl)tetrahydro-2H-pyran-4-yl]-1,3-thiazole] | 
4 | 1 | CN(C)C(=O)C1(c2ccc(OC3CCN(C4CCC4)CC3)cc2)CCOCC1 [Example 155, 4-{4-[(1-cyclobutylpiperidin-4-yl)oxy]phenyl}-N,N-dimethyltetrahydro-2H-pyran-4-carboxamide] | 
5 | 2 | CNC(=O)C1(c2ccc(OC3CCN(C4CCC4)CC3)cc2)CCOCC1 [Example 156, 4-{4-[(1-cyclobutylpiperidin-4-yl)oxy]phenyl}-N-methyltetrahydro-2H-pyran-4-carboxamide] | 
6 | 1.5 | CCNC(=O)C1(c2ccc(OC3CCN(C4CCC4)CC3)cc2)CCOCC1 [Example 160, 4-{4-[(1-cyclobutylpiperidin-4-yl)oxy]phenyl}-N-ethyltetrahydro-2H-pyran-4-carboxamide] | 
7 | 7.3 | O=C(N1CCCC1)C1(c2ccc(OCCCN3CCCC3)cc2)CCOCC1 [Example 187, 1-(3-{4-[4-(pyrrolidin-1-ylcarbonyl)tetrahydro-2H-pyran-4-yl]phenoxy}propyl)pyrrolidine] | 
8 | 6.8 | O=C(N1CCCCC1)C1(c2ccc(OCCCN3CCCC3)cc2)CCOCC1 [Example 188, 1-({4-[4-(3-pyrrolidin-1-ylpropoxy)phenyl]-tetrahydro-2H-pyran-4-yl}carbonyl)piperidine] | 
9 | 14.3 | O=C(N1CCC1)C1(c2ccc(OCCCN3CCCC3)cc2)CCOCC1 [Example 189, 1-(3-{4-[4-(azetidin-1-ylcarbonyl)tetrahydro-2H-pyran-4-yl]phenoxy}propyl)pyrrolidine] | 
10 | 2.4 | CCN(C)C(=O)C1(c2ccc(OCCCN3CCCC3)cc2)CCOCC1 [Example 190, N-ethyl-N-methyl-4-[4-(3-pyrrolidin-1-ylpropoxy)phenyl]tetrahydro-2H-pyran-4-carboxamide] | 
11 | 10.3 | CN(C)C(=O)C1(c2ccc(OCCCN3CCCC3)cc2)CCOCC1 [Example 191, N,N-dimethyl-4-[4-(3-pyrrolidin-1-ylpropoxy)-phenyl]tetrahydro-2H-pyran-4-carboxamide] | 
12 | 0.6 | c1ccc2c(c1)ncn2CC1(c2ccc(OCCCN3CCCC3)cc2)CCOCC1 [Example 196] | 
13 | 5.8 | c1ccc(C2(c3ccc(OCCCN4CCCC4)cc3)CCOCC2)nc1 [Example 205, 2-{4-[4-(3-pyrrolidin-1-ylpropoxy)phenyl]tetrahydro-2H-pyran-4-yl}-pyridine] | 
14 | 12.9 | c1ncc(C2(c3ccc(OCCCN4CCCC4)cc3)CCOCC2)o1 [Example 206, 5-{4-[4-(3-pyrrolidin-1-ylpropoxy)phenyl]tetrahydro-2H-pyran-4-yl}-1,3-oxazole] | 
15 | 2.6 | CN(C)CC1(c2ccc(OCCCN3CCOCC3)cc2)CCOCC1 [Example 213, N,N-dimethyl-1-{4-[4-(3-morpholin-4-ylpropoxy)phenyl]tetrahydro-2H-pyran-4-yl}methanamine] | 
16 | 2.2 | CC(C)N1CC(COc2ccc(C3(CN4CCOCC4)CCOCC3)cc2)C1 [Example 220, 4-[(4-{4-[(1-isopropylazetidin-3-yl)methoxy]phenyl}tetrahydro-2H-pyran-4-yl)methyl]morpholine] | 
17 | 3.9 | c1cc2c(cn1)ncn2CC1(c2ccc(OCCCN3CCCC3)cc2)CCOCC1 [Example 247, 1-({4-[4-(3-pyrrolidin-1-ylpropoxy)phenyl]tetrahydro-2H-pyran-4-yl}methyl)-1H-imidazo[4,5-c]pyridine] | 
18 | 0.3 | c1cnc2c(c1)ncn2CC1(c2ccc(OCCCN3CCCC3)cc2)CCOCC1 [Example 248, 3-({4-[4-(3-pyrrolidin-1-ylpropoxy)phenyl]tetrahydro-2H-pyran-4-yl}methyl)-3H-imidazo[4,5-b]pyridine] | 
19 | 9.7 | c1cnc2ncn(CC3(c4ccc(OCCCN5CCCC5)cc4)CCOCC3)c2c1 [Example 249, 1-({4-[4-(3-pyrrolidin-1-ylpropoxy)phenyl]tetrahydro-2H-pyran-4-yl}methyl)-1H-imidazo[4,5-b]pyridine] | 
20 | 4.6 | c1cc(NCC2(c3ccc(OCCCN4CCCC4)cc3)CCOCC2)cnn1 [Example 250, N-({4-[4-(3-pyrrolidin-1-ylpropoxy)phenyl]tetrahydro-2H-pyran-4-yl}methyl)pyridazin-4-amine] | 
21 | 1.3 | CNCC1(c2ccc(OCCCN3CCOCC3)cc2)CCOCC1 [Example 254, N-methyl-1-{4-[4-(3-morpholin-4-ylpropoxy)phenyl]tetrahydro-2H-pyran-4-yl}methanamine] | 
22 | 9.7 | c1c[nH]c(C2(c3ccc(OCCCN4CCCC4)cc3)CCOCC2)n1 [Example 266, 2-{4-[4-(3-pyrrolidin-1-ylpropoxy)phenyl]tetrahydro-2H-pyran-4-yl}-1H-imidazole] | 
23 |  | CC(C)N1CCC(Oc2ccc(C3(CNc4ccnnc4)CCOCC3)cc2)CC1 [Example 267, N-[(4-{4-[(1-isopropylpiperidin-4-yl)oxy]phenyl}tetrahydro-2H-pyran-4-yl)methyl]pyridazin-4-amine] | 5.8
24 | 6.5 | c1cc(C2(CN3CCOCC3)CCOCC2)ccc1OCCCN1CCCOCC1 [Example 268, 4-(3-{4-[4-(morpholin-4-ylmethyl)tetrahydro-2H-pyran-4-yl]phenoxy}propyl)-1,4-oxazepane] | 
25 | 10.8 | c1cc(C2(Cn3cnnc3)CCOCC2)ccc1OCCCN1CCCC1 [Example 272, 4-({4-[4-(3-pyrrolidin-1-ylpropoxy)phenyl]tetrahydro-2H-pyran-4-yl}methyl)-4H-1,2,4-triazole] | 
26 | 6.2 | c1cc(C2(c3ccc(OCCCN4CCCC4)cc3)CCOCC2)ncn1 [Example 276, 4-{4-[4-(3-pyrrolidin-1-ylpropoxy)phenyl]tetrahydro-2H-pyran-4-yl}pyrimidine] | 
